Reference: the supplement of paper PMC5908809

How the values were obtained:
[1] = tested on: normal NK cells expanded with K562-aAPC; test: percent inhibition of viability; higher = more inhibition; settings: 72 h, IL-2 2.5 ng/mL
Procedure: (§1)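 Drug sensitivity and resistance testing on K562-aAPC-expanded normal NK cells: 5 concentrations (10-fold steps over a 10,000-fold range), 72 h at 37 °C, viability by CellTiter-Glo normalised to DMSO and benzethonium chloride controls; DSS from the fitted curve.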

[2] = tested on: normal primary NK cells, pool 3 (3 donors) (IL-2 2.5 ng/mL); test: as above; settings: 72 h
[3] = tested on: normal primary NK cells, pool 1 (3 donors), resting (IL-2 0 ng/mL); test: as above; settings: 72 h
[4] = tested on: normal primary NK cells, pool 2 (3 donors) (IL-2 2.5 ng/mL); test: as above; settings: 72 h
[5] = tested on: SNK-6 (IL-2 2.5 ng/mL); test: as above; settings: 72 h
[6] = tested on: IMC-1 (IL-2 20 ng/mL); test: as above; settings: 72 h
[7] = tested on: NK-92 (IL-2 2.5 ng/mL); test: as above; settings: 72 h
[8] = tested on: NK-YS (IL-2 2.5 ng/mL); test: as above; settings: 72 h
[9] = tested on: NKL (IL-2 2.5 ng/mL); test: as above; settings: 72 h
[10] = tested on: normal primary NK cells, pool 1 (3 donors) (IL-2 2.5 ng/mL); test: as above; settings: 72 h
[11] = tested on: KHYG-1 (IL-2 2.5 ng/mL); test: as above; settings: 72 h
[12] = tested on: DERL-7 (IL-2 2.5 ng/mL); test: as above; settings: 72 h
[13] = tested on: KAI3 (IL-2 2.5 ng/mL); test: as above; settings: 72 h
[14] = tested on: YT (IL-2 2.5 ng/mL); test: as above; settings: 72 h
[15] = tested on: normal NK cells expanded with K562-aAPC; test: drug sensitivity score (DSS) (DSS units); higher = more sensitive; extreme values may be limits of the assay; settings: 72 h; IL-2 2.5 ng/mL
Procedure: as §1

[16] = tested on: normal primary NK cells, pool 3 (3 donors) (IL-2 2.5 ng/mL); test: as above; settings: 72 h
[17] = tested on: normal primary NK cells, pool 1 (3 donors), resting (IL-2 0 ng/mL); test: as above; settings: 72 h
[18] = tested on: normal primary NK cells, pool 2 (3 donors) (IL-2 2.5 ng/mL); test: as above; settings: 72 h
[19] = tested on: SNK-6 (IL-2 2.5 ng/mL); test: as above; settings: 72 h
[20] = tested on: IMC-1 (IL-2 20 ng/mL); test: as above; settings: 72 h
[21] = tested on: NK-92 (IL-2 2.5 ng/mL); test: as above; settings: 72 h
[22] = tested on: NK-YS (IL-2 2.5 ng/mL); test: as above; settings: 72 h
[23] = tested on: NKL (IL-2 2.5 ng/mL); test: as above; settings: 72 h
[24] = tested on: normal primary NK cells, pool 1 (3 donors) (IL-2 2.5 ng/mL); test: as above; settings: 72 h
[25] = tested on: KHYG-1 (IL-2 2.5 ng/mL); test: as above; settings: 72 h
[26] = tested on: DERL-7 (IL-2 2.5 ng/mL); test: as above; settings: 72 h
[27] = tested on: KAI3 (IL-2 2.5 ng/mL); test: as above; settings: 72 h
[28] = tested on: YT (IL-2 2.5 ng/mL); test: as above; settings: 72 h

CNC(=O)c1ccc(N2C(=S)N(c3ccc(C#N)c(C(F)(F)F)c3)C(=O)C23CCC3)cc1F [RD162] (max concentration tested 10000 nM)
percent inhibition of viability [%]
Settings | 1 nM | 10 nM | 100 nM | 1000 nM | 10000 nM
[1] | -8.24 | -9.67 | -4.97 | 7.5 | 1.43
[2] | -4.05 | -1.08 | 1.71 | -2.99 | 3.64
[3] | 1.38 | 18.7 | 13.6 | 12.9 | 40.5
[4] | -7.24 | -1.28 | 0.84 | 3.39 | 11.3
[5] | -1.99 | -21.8 | 2.57 | -8.56 | 1.37
[6] | -5.69 | -2.87 | -1.68 | 2.9 | 17.6
[7] | -11.3 | 5.25 | -15.2 | -0.07 | 33.8
[8] | -12.1 | -6.94 | -9.33 | 1.8 | 16.9
[9] | -11.3 | -5.72 | -0.58 | 7.33 | 23.9
[10] | -2.22 | 4.97 | 8.69 | 3.69 | 20.8
[11] | -6.85 | -6.64 | -5.8 | 2.74 | 10.4
[12] | 2.54 | -3.32 | -8.09 | -8.58 | -5.45
[13] | -2.44 | -0.44 | 1.83 | 0.32 | 18.6
[14] | -8.11 | -4.09 | -6.39 | 3.85 | 24.7

Settings | drug sensitivity score
[15] | 0
[16] | 0
[17] | 5.08
[18] | 0.09
[19] | 0
[20] | 0.76
[21] | 1.56
[22] | 0.56
[23] | 1.84
[24] | 0.72
[25] | 0.01
[26] | 0
[27] | 0.52
[28] | 1.51

C[C@@H]1CCN(C(=O)CC#N)C[C@@H]1N(C)c1ncnc2[nH]ccc12 [Tofacitinib] (max concentration tested 5000 nM)
percent inhibition of viability [%]
Settings | 0.5 nM | 5 nM | 50 nM | 500 nM | 5000 nM
[1] | 0.56 | -0.5 | 34.7 | 89.7 | 96.1
[2] | -10.3 | -4.27 | 6.35 | 48.6 | 60.7
[3] | -2.2 | -5.26 | -18 | 7.52 | -1.29
[4] | -14 | -8.22 | 19.6 | 60.2 | 67
[5] | -3.6 | 10 | 22.4 | 80.2 | 77.1
[6] | -6.11 | -7.94 | -16.8 | 34.5 | 92.1
[7] | -2.4 | -2.12 | 17.6 | 66.9 | 80.8
[8] | -1.06 | 4.19 | 22 | 56.2 | 67.5
[9] | -18.4 | 5 | 56.6 | 78.2 | 86.8
[10] | -7 | -4.5 | 19.9 | 68.1 | 69.8
[11] | -4.2 | 2.4 | 59.4 | 100 | 98.6
[12] | 4.68 | 5.82 | 37.9 | 76.5 | 100
[13] | -5.21 | 10.5 | 45.3 | 82.7 | 85.5
[14] | -1.31 | -0.82 | 0.63 | 46.5 | 64.1

Settings | drug sensitivity score
[15] | 20.7
[16] | 9.81
[17] | 0
[18] | 13.7
[19] | 17.6
[20] | 9.8
[21] | 14.5
[22] | 13
[23] | 22.6
[24] | 15.6
[25] | 25.1
[26] | 19.1
[27] | 20.8
[28] | 8.99

C[C@@H](Oc1cc(-n2cnc3ccc(CN4CCN(C)CC4)cc32)sc1C(N)=O)c1ccccc1C(F)(F)F (max concentration tested 10000 nM)
percent inhibition of viability [%]
Settings | 1 nM | 10 nM | 100 nM | 1000 nM | 10000 nM
[1] | -4.93 | 10.2 | 55.8 | 59.8 | 101
[2] | -0.27 | -3.72 | 15.8 | 9.91 | 100
[3] | 15.5 | 24.8 | 22.1 | 54.6 | 96.9
[4] | -4.17 | -1.65 | 6.09 | 21.6 | 97.1
[5] | -6.84 | 54.4 | 70.9 | 60.5 | 100
[6] | -5.44 | -5.88 | 96.8 | 98 | 99.8
[7] | -10.3 | 68.8 | 96.9 | 98.4 | 108
[8] | -6.78 | 7.77 | 68.5 | 63.2 | 107
[9] | -22.4 | 10.7 | 76.8 | 76.5 | 107
[10] | -0.02 | -2.73 | 1.92 | 18.8 | 99.3
[11] | -6.87 | 20.7 | 99 | 104 | 109
[12] | -5.05 | 5.6 | 99 | 97.7 | 101
[13] | -0.2 | 19.3 | 57.2 | 46.8 | 103
[14] | -6.84 | 0.54 | 79.4 | 64 | 108

Settings | drug sensitivity score
[15] | 19.8
[16] | 7.17
[17] | 15.5
[18] | 8.79
[19] | 27.6
[20] | 29.6
[21] | 38.4
[22] | 23.1
[23] | 27.8
[24] | 8.55
[25] | 33.8
[26] | 31.2
[27] | 19.3
[28] | 27.5

C=CC(=O)N1CCC[C@@H](n2nc(-c3ccc(Oc4ccccc4)cc3)c3c(N)ncnc32)C1 [Ibrutinib] (max concentration tested 1000 nM)
percent inhibition of viability [%]
Settings | 0.1 nM | 1 nM | 10 nM | 100 nM | 1000 nM
[1] | -2.6 | -5.62 | -10 | -0.99 | -0.93
[2] | -5.07 | 4.6 | -2.73 | -10.7 | -14
[3] | -3.67 | 8.12 | 16.8 | 10 | 22.4
[4] | -6.12 | 0.44 | 7.05 | -9.76 | 10.5
[5] | -11.4 | 9.91 | -7.4 | 1.24 | 8.78
[6] | -4.48 | -0.1 | -1.11 | -2.87 | -8.75
[7] | -15.8 | -16.1 | -8.18 | 0.25 | 15.7
[8] | -1.09 | -1.95 | -0.26 | 0.88 | 15.6
[9] | -5.52 | 0.29 | 10.1 | 24.2 | 30
[10] | -0.62 | 9.62 | 12.7 | 12.1 | 21
[11] | -6.77 | -1.35 | -1.82 | 0.67 | 8.69
[12] | 2.78 | 2.44 | 6.17 | 7.83 | 34.1
[13] | 1.69 | 2.89 | 0.25 | 8.29 | 20.5
[14] | -2.79 | -1.68 | -0.35 | 13.8 | 31.3

Settings | drug sensitivity score
[15] | 0
[16] | 0
[17] | 2.74
[18] | 0
[19] | 0
[20] | 0
[21] | 0.3
[22] | 0.35
[23] | 4.8
[24] | 2.44
[25] | 0
[26] | 2.68
[27] | 1.54
[28] | 3.17

CN1CCC(CNc2ccc3ncc(-c4cccc(OC(F)(F)F)c4)n3n2)CC1 [SGI-1776] (max concentration tested 10000 nM)
percent inhibition of viability [%]
Settings | 1 nM | 10 nM | 100 nM | 1000 nM | 10000 nM
[1] | 0.39 | 2.03 | 3.74 | 25.6 | 101
[2] | -9.4 | -9.39 | -5.33 | 7.82 | 100
[3] | 4.88 | -2.56 | 18.3 | 29.4 | 99.8
[4] | -5.28 | -4.01 | 7.14 | 23.6 | 102
[5] | 11.8 | -1.96 | 7.5 | -1.42 | 101
[6] | -2.53 | -0.64 | 0.12 | -0.28 | 101
[7] | 0.53 | 2.3 | 2.24 | 6.57 | 105
[8] | 2.39 | 2.07 | 3.08 | 7.09 | 105
[9] | -15.4 | -12.2 | -2.55 | 18.8 | 103
[10] | -1.59 | -15.9 | 0.28 | 11.6 | 101
[11] | 2.2 | 0.67 | 5.12 | 10.8 | 104
[12] | 4.46 | 1.8 | 11.3 | 43.9 | 101
[13] | -4.36 | -2.13 | -0.56 | 14.2 | 104
[14] | 2.03 | -1.52 | 2.24 | 5.9 | 105

Settings | drug sensitivity score
[15] | 9.44
[16] | 6.78
[17] | 9.01
[18] | 9.22
[19] | 5.51
[20] | 5.65
[21] | 6.86
[22] | 6.92
[23] | 8.62
[24] | 7.48
[25] | 7.47
[26] | 10.6
[27] | 7.99
[28] | 6.74
